# Assay results taken from US11608332B2, “FGFR4 inhibitor and preparation method and use thereof” (Jiangsu Hansoh Pharmaceutical Group Co., Ltd., priority 2016, dated 2023).
# pIC50: −log10 of the molar value.
# Experiments:
# [1] = target: FGFR1 kinase (Homo sapiens (Human), UniProt P11362); assay: Enzymologic experiment of FGFR1 (TR-FRET); format: biochemical; settings: TR-FRET kinase activity
# Method: 2. Enzymologic Experiment of FGFR1
# In this experiment, the inhibitory effect of the compounds on FGFR1 kinase activity was tested by a fluorescence resonance energy transfer (TR-FRET) method, and the half maximal inhibitory concentration (IC50) of the compounds on the FGFR1 kinase activity was determined.
# 1) 1˜5 μL of FGFR1 enzymatic solution was added to a 384-well plate, and the final concentration of the enzyme was 0.1˜5 nM.
# 2) 1˜5 μL of diluted solution in gradient of the compound was added.
# 3) 1˜5 μL of a substrate mixture containing substrate polypeptide with a final concentration of 5˜50 nM and ATP with a final concentration of 10˜200 μM was added.
# 4) The mixture was incubated for 0.5-3 hours at room temperature.
# 5) 10 μL of EDTA and a test solution comprising labeled antibody were added, and the plate was incubated for 1 hour at room temperature.
# 6) The fluorescence signal values of each plate were determined by a microplate reader at 665 nm.
# 7) The inhibition rates were calculated according to the fluorescence signal values.
# The IC50 of the compound was obtained by curve fitting according to the inhibition rates at different concentrations, and the enzymatic activity of the specific example compounds is shown in Table 1.
# [2] = test system: Hep 3B cells; assay: Inhibition of Hep 3B cell proliferation (CellTiter-Glo); format: cell-based; settings: Homo sapiens, Hep3B, 72 hours
# Method: 3. Experiment on the Inhibition of Hep 3B Cell Proliferation
# In this experiment, the inhibitory effect of the compounds on Hep 3B cell proliferation was tested by a CellTiter-Glo method, and the half maximal inhibitory concentration (IC50) of the compounds on the activity of cell proliferation was determined.
# 1) A 96-well cell culture plate was seeded with 50˜100 μL of Hep 3B cell suspension at a density of 1-5×10^4 cells/ml. The culture plate was incubated in an incubator for 16-24 hours (37° C., 5% CO2).
# (§1) 2) Different concentrations of the test compound in a gradient dilution were added to the cells in the culture plate. The culture plate was incubated in an incubator for 72 hours (37° C., 5% CO2).
# 3) 50-100 μL of CellTiter-Glo reagent were added to each well. Then, the culture plate was shaken or left to stand for 5˜30 minutes at room temperature.
# (§2) 4) The chemiluminescence signal values of each plate were determined by a microplate reader.
# (§3) 5) The inhibition rates were calculated according to the chemiluminescence signal values.
# 6) The IC50 of the compound was obtained by curve fitting according to the inhibition rates at different concentrations, and the cell activity of the specific example compounds is shown in Table 2.
# [3] = test system: HuH-7 cells; assay: Inhibition of HuH-7 cell proliferation (CellTiter-Glo); format: cell-based; settings: Homo sapiens, 72 hours
# Method: 4. Experiment on the Inhibition of HuH-7 Cell Proliferation
# In this experiment, the inhibitory effect of the compounds on HuH-7 cell proliferation was tested by a CellTiter-Glo method, and the half maximal inhibitory concentration (IC50) of the compounds on the activity of cell proliferation was determined.
# 1) A 96-well cell culture plate was seeded with 50˜100 μL of HuH-7 cell suspension at a density of 1-5×10^4 cells/ml. The culture plate was incubated in an incubator for 16˜24 hours (37° C., 5% CO2).
# as §1
# (§4) 3) 50˜100 μL of CellTiter-Glo reagent were added to each well. Then, the culture plate was shaken or left to stand for 5˜30 minutes at room temperature.
# as §2, §3
# 6) The IC50 of the compound was obtained by curve fitting according to the inhibition rates at different concentrations, and the cell activity of the specific Example compounds is shown in Table 2.
# [4] = test system: SK-HEP-1 cells; assay: Inhibition of SK-HEP-1 cell proliferation (CellTiter-Glo); format: cell-based; settings: Homo sapiens, SK-HEP1, 72 hours
# Method: 5. Experiment on the Inhibition of SK-HEP-1 Cell Proliferation
# In this experiment, the inhibitory effect of the compounds on SK-HEP-1 cell proliferation was tested by a CellTiter-Glo method, and the half maximal inhibitory concentration (IC50) of the compounds on the activity of cell proliferation was determined.
# 1) A 96-well cell culture plate was seeded with 50˜100 μL of SK-HEP-1 cell suspension at a density of 1-5×10^4 cells/ml. The culture plate was incubated in an incubator for 16˜24 hours (37° C., 5% CO2).
# as §1, §4, §2, §3
# The IC50 of the compound was obtained by curve fitting according to the inhibition rates at different concentrations, and the cell activity of the specific Example compounds is shown in Table 2.
# [5] = Pharmacokinetic (PK) analysis in rats; format: in vivo, Sprague Dawley (SD) rats; settings: SD rats, single intragastric administration, 5 mg/kg, plasma; for AUC(0-t) / AUC(0-inf) / half-life / MRT / Cmax: Sprague-Dawley, rat, po; for AUC(0-t): read-out: Area Under Curve AUC0-t; for AUC(0-inf): read-out: Area Under Curve AUC0-∞; for half-life: read-out: Half-Time t1/2 (converted); for MRT: read-out: Mean Residence Time MRT; for Cmax: read-out: Plasma Concentration Cmax
# Method: 6. Pharmacokinetic (PK) Analysis in Rats
# Mode of administration: a single intragastric administration.
# Formulation: 0.5% CMC and 1% Tween 80, ultrasonic dissolution.
# Sampling points: 0.5, 1, 2, 4, 6, 8 and 24 hours after administration.
# 1. 1.0 ml of intravenous blood was collected and placed in a K2EDTA test tube.
# The blood was centrifuged at room temperature at the speed of 1000˜3000×g for 5˜20 minutes to isolate the plasma, which was then stored at −80° C. 2. 160 μL of acetonitrile were added to 40 μL of plasma sample for precipitation, and then the mixture was centrifuged at the speed of 500˜2000×g for 5˜20 minutes. 3. 100 μL of treated solution were taken, and the concentration of the test compound was analyzed by LC/MS/MS. The LC/MS/MS analytical instrument was AB Sciex API 4000.
# Liquid Chromatography Analysis:
# Condition of Liquid chromatography: Shimadzu LC-20AD pump
# Chromatographic column: phenomenex Gemiu 5 um C18 50×4.6 mm
# Mobile phase: Solution A is 0.1% aqueous formic acid solution, and solution B is acetonitrile
# Elution time: 0-3.5 minutes, the eluent was as follows:
# Mass spectrometry analysis:
# Mass spectrometer setup conditions: positive ion electrospray ionization (ESI) mode.
# FGFR1 kinase, sequence (P11362 22-822): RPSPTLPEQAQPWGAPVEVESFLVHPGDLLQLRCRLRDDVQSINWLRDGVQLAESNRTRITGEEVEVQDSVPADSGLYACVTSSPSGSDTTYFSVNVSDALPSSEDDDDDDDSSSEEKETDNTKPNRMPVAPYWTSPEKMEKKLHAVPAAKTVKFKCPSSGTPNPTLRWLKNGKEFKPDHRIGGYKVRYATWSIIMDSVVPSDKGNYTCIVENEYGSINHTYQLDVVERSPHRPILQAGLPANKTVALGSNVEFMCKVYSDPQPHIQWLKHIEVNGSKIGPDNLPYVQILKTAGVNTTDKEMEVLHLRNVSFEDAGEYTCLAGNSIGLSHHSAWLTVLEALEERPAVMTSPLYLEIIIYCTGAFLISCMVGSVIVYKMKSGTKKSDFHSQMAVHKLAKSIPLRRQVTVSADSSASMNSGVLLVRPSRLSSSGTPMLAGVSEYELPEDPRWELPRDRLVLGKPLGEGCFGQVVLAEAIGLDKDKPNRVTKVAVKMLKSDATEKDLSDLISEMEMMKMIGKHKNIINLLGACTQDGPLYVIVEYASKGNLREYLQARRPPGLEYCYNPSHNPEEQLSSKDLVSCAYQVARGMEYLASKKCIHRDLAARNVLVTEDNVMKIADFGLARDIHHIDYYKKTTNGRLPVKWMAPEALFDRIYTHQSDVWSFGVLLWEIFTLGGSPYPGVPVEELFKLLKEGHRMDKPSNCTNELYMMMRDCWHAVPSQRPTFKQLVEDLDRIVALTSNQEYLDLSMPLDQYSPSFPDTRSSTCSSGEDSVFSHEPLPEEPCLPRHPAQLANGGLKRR
Structure (SMILES),pIC50 [1],pIC50 [2],pIC50 [3],pIC50 [4],Peak Time tmax [5] [h],AUC(0-t) [5] [ng·h/mL],AUC(0-inf) [5] [ng·h/mL],half-life [5] [h],MRT [5] [h],Cmax [5] [ng/mL]
"COCCNc1cc(NC(=O)N2CCCc3cc(CN(C)C(=O)C4COC4)c(C=O)nc32)ncc1C#N [Example 3, N-(5-Cyano-4-((2-methoxyethyl)amino)pyridin-2-yl)-7-formyl-6-((N-methyloxetane-3-carboxamido)methyl)-3,4-dihydro-1,8-naphthyridin-1(2H)-carboxamide]",< 5.00,8.27,7.41,< 5.00,2,6350,6660,1.6,3.3,2230
"COCCNc1cc(NC(=O)N2CCCc3cc(CN(C)C(=O)[C@@H]4CCCO4)c(C=O)nc32)ncc1C#N [Example 2, (S)—N-(5-Cyano-4-((2-methoxyethyl)amino)pyridin-2-yl)-7-formyl-6-((N-methyltetrahydrofuran-2-carboxamido)methyl)-3,4-dihydro-1,8-naphthyridin-1(2H)-carb oxamide]",< 5.00,8.28,8.23,< 5.00,2,5820,5900,1.2,2.5,2200
"CO[C@@H]1CCN(Cc2cc3c(nc2C=O)N(C(=O)Nc2cc(N[C@@H]4CCOC4)c(C#N)cn2)CCC3)C1=O [Example 87, N-(5-Cyano-4-(((R)-tetrahydrofuran-3-yl)amino)pyridin-2-yl)-7-formyl-6-(((R)-3-methoxy-2-carbonylpyrrolidin-1-yl)methyl)-3,4-dihydro-1,8-naphthyridin-1(2H)-carboxamide]",< 5.00,8.66,8.27,< 5.00,2,12400,14700,1.2,2.6,3360
"CO[C@H]1CCN(Cc2cc3c(nc2C=O)N(C(=O)Nc2cc(N[C@H]4CCOC4)c(C#N)cn2)CCC3)C1=O [Example 84, N-(5-Cyano-4-(((S)-tetrahydrofuran-3-yl)amino)pyridin-2-yl)-7-formyl-6-(((S)-3-methoxy-2-carbonylpyrrolidin-1-yl)methyl)-3,4-dihydro-1,8-naphthyridin-1(2H)-carboxamide]",< 5.00,8.62,7.96,< 5.00,2,8860,8950,0.9,3.1,2620
"COCC(=O)N(C)Cc1cc2c(nc1C=O)N(C(=O)Nc1cc(N3CC[C@@H](OC)C3)c(C#N)cn1)CCC2 [Example 107, (R)—N-(5-Cyano-4-(3-methoxypyrrolidin-1-yl)pyridin-2-yl)-7-formyl-6-((2-methoxy-N-methylacetamido)methyl)-3,4-dihydro-1,8-naphthyridin-1(2H)-carboxamide]",< 5.00,8.80,8.14,< 5.00,4,2630,2670,1,2.8,1940
"COCCNc1cc(NC(=O)N2CCCc3cc(CN(C[C@H]4CCCO4)C(C)=O)c(C=O)nc32)ncc1C#N [Example 109, (R)—N-(5-Cyano-4-((2-methoxyethyl)amino)pyridin-2-yl)-7-formyl-6-((N-((tetrahydrofuran-2-yl)methyl)acetamido)methyl)-3,4-dihydro-1,8-naphthyridin-1(2H)-carboxamide]",< 5.00,8.22,7.95,< 5.00,–,–,–,–,–,–
"COCCNc1cc(NC(=O)N2CCCc3cc(CN(C)C(=O)[C@@H]4CCOC4)c(C=O)nc32)ncc1C#N [Example 7, (R)—N-(5-Cyano-4-((2-methoxyethyl)amino)pyridin-2-yl)-7-formyl-6-((N-methyltetrahydrofuran-3-carboxamido)methyl)-3,4-dihydro-1,8-naphthyridin-1(2H)-carb oxamide]",< 5.00,8.33,7.97,< 5.00,–,–,–,–,–,–
